This series in a line: Compound solubility in PBS (pH 7.4), LC-MS/MS. How it is done: • Test concentration: 100 μM (1% of DMSO) • Test systems: PBS (pH 7.4) • Incubation condition: shaken (1000 rpm) for 1 h at room temperature • Sample size: Duplicates (n=2) • Bioanalytical method: LC-MS/MS
Setting [1] is: PBS (pH 7.4), pH 7.4, aqueous buffer, kinetic from dmso stock, Solubility (μM) Mean, Table 6-B, test concentration 100 μM (1% of DMSO), shaken (1000 rpm) 1 h at room temperature, n = 2.
Where [2] appears, read: PBS (pH 7.4), pH 7.4, aqueous buffer, kinetic from dmso stock, Solubility (μM), Table 6-D.
The mark [3] stands for this setting: PBS (pH 7.4), pH 7.4, aqueous buffer, kinetic from dmso stock, Solubility (μM) Mean, Table 6-C, test concentration 100 μM (1% of DMSO), shaken (1000 rpm) 1 h at room temperature, n = 2.

Values after ≈ are worked out from the molar mass of the structure shown. Bounds are passed on as bounds.

The term solubility denotes how much of the substance goes into solution per volume. `CC(=O)Oc1cc2c(c(C)c1OC(C)=O)C(SC(C)C)C=C1[C@@]2(C)CC[C@@]2(C)[C@@H]3C[C@](C)(CN(C)C)CC[C@]3(C)CC[C@]12C` (stereo partly shown) [ERX1115]: the solubility at 1 h was determined as 0.56 µM (≈ 0.349 µg/mL) under setting [1] and 0.557 µM (≈ 0.348 µg/mL) under setting [2].
Regarding `CC1=C(O)C(=O)C=C2C1=CC=C1[C@@]2(C)CC[C@@]2(C)[C@@H]3C[C@](C)(CN4CCOCC4)CC[C@]3(C)CC[C@]12C` [ERX1116], the solubility at 1 h reads like this: under setting [1], 0.47 µM (≈ 0.238 µg/mL); under setting [2], 0.47 µM (≈ 0.238 µg/mL).
In the case of `CC1=C(O)C(=O)C=C2C1=CC=C1[C@@]2(C)CC[C@@]2(C)[C@@H]3C[C@](C)(CN4CCN(C)CC4)CC[C@]3(C)CC[C@]12C` [ERX1117], the concentration in solution under setting [1] (solubility at 1 h) came to 0.91 µM (≈ 0.472 µg/mL) and the solubility at 1 h under setting [2] amounted to 0.914 µM (≈ 0.474 µg/mL).
In the same order, the values of `CCCOC1=C(C)C2=CC=C3[C@@](C)(CC[C@@]4(C)[C@@H]5C[C@](C)(C(N)=O)CC[C@]5(C)CC[C@]34C)C2=CC1=O` [ERX1121] are 1.55 µM (≈ 0.762 µg/mL) and 1.55 µM (≈ 0.762 µg/mL).
As for `C=CCOC1=C(C)C2=CC=C3[C@@](C)(CC[C@@]4(C)[C@@H]5C[C@](C)(C(N)=O)CC[C@]5(C)CC[C@]34C)C2=CC1=O` [ERX1124], the solubility at 1 h under setting [1] was determined as 1.04 µM (≈ 0.509 µg/mL) and the solubility at 1 h under setting [2] is 1.03 µM (≈ 0.507 µg/mL).
Compound `CC(=O)N[C@]1(C)CC[C@]2(C)CC[C@]3(C)C4=CC(SC(=O)c5ccccc5)c5c(cc(OC(C)=O)c(OC(C)=O)c5C)[C@]4(C)CC[C@@]3(C)[C@@H]2C1` (stereo partly shown) [ERX1173] gave a solubility at 1 h under setting [3] of 1.74 µM (≈ 1.19 µg/mL).
Turning to `CC1=C(O)C(=O)C=C2C1=CC=C1[C@@]2(C)CC[C@@]2(C)[C@@H]3C[C@](C)(NS(C)(=O)=O)CC[C@]3(C)CC[C@]12C` [ERX1175], the solubility at 1 h by setting is: under setting [1], 4.03 µM (≈ 2.01 µg/mL); under setting [2], 4.03 µM (≈ 2.01 µg/mL).
As for `CC(=O)N1CCN(c2ccc(OCC3COC(Cn4ccnc4)(c4ccc(Cl)cc4Cl)O3)cc2)CC1` (stereo not shown) [Ketoconazole], the solubility at 1 h by setting is: under setting [1], 35.7 µM (≈ 19 µg/mL); under setting [3], 35.2 µM (≈ 18.7 µg/mL); under setting [2], 35.7 µM (≈ 19 µg/mL).
Regarding `CC(C)NCC(O)COc1cccc2ccccc12` (stereo not shown) [Propranolol], the solubility at 1 h is 97.5 µM (≈ 25.3 µg/mL) (pH 7.4, aqueous buffer, kinetic from dmso stock, Solubility (μM) Mean, Table 6-B; PBS (pH 7.4), test concentration 100 μM (1% of DMSO), shaken (1000 rpm) 1 h at room temperature, n = 2); greater than 100 µM (pH 7.4, aqueous buffer, kinetic from dmso stock, Solubility (μM) Mean, Table 6-C; PBS (pH 7.4), test concentration 100 μM (1% of DMSO), shaken (1000 rpm) 1 h at room temperature, n = 2); 97.5 µM (≈ 25.3 µg/mL) (pH 7.4, aqueous buffer, kinetic from dmso stock, Solubility (μM), Table 6-D; PBS (pH 7.4)).
